This note sets out measurements from patent US5968923A, “(Azetidin-1-ylalkyl) lactams as tachykinin antagonists” (Pfizer Inc., priority 1994, dated 1999).

SMILES strings stand for the structures.

In one experiment the target is T1, human NK2 receptor (Homo sapiens, UniProt P21452).
T1 construct: expressed in transfected cells; host or cells: Chinese hamster ovary (CHO) cells, membranes
T1 sequence (P21452 1-398): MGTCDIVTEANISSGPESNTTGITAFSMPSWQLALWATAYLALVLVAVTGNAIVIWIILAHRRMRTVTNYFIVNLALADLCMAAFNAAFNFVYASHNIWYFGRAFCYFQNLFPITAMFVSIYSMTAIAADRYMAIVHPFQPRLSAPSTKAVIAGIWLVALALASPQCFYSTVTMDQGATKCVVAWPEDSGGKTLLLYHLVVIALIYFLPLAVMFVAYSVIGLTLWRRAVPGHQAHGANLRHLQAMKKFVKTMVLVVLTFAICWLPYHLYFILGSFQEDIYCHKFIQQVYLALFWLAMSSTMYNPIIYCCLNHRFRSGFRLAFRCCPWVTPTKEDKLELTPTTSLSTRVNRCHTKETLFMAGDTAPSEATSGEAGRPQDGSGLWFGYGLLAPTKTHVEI
Description: Competition with [^125 I] NKA for binding to membranes from Chinese hamster ovary cells expressing the cloned human NK2 receptor (Method A). The following applies: Chinese hamster ovary cell membranes; for IC50: read-out: METHOD A (pIC50) (converted). The method, then: The affinity of the compounds of formula (I) and their salts for the human NK2 receptor can be tested in vitro by testing their ability to compete with [^3 H] or [^125 I]NKA (neurokinin A) for binding to membranes prepared from Chinese hamster ovary cells expressing the cloned human NK2 receptor. In this method, washed Chinese hamster ovary cell membranes are prepared as described for the previous method where IM9 cells are used instead. The membranes are incubated (90 min, 25° C.) with [^3 H] NKA and with a range of concentrations of the test compound. Non-specific binding was determined in the presence of 10 μM NKA.
(§1) A representative selection of the compounds of the Examples were tested in vitro for their affinity to the human NK2 receptor by testing their ability to compete with [^125 I] NKA for binding to membranes prepared from Chinese hamster ovary cells expressing the cloned human NK2 receptor (Method A) and for their ability to antagonise the contractile effects of [βAla^8 ] NKA(4-10) in the rabbit pulmonary artery (Method B) by the methods described on pages 40 and 41 of the specification.

The target of another experiment is T2, NK2 receptor (Oryctolagus cuniculus, UniProt P79218).
T2 construct: antagonise the contractile effects of [βAla^8 ]; NKA(4-10) in the rabbit pulmonary artery; from tissue; host or cells: rabbit pulmonary artery
T2 sequence (P79218 1-384): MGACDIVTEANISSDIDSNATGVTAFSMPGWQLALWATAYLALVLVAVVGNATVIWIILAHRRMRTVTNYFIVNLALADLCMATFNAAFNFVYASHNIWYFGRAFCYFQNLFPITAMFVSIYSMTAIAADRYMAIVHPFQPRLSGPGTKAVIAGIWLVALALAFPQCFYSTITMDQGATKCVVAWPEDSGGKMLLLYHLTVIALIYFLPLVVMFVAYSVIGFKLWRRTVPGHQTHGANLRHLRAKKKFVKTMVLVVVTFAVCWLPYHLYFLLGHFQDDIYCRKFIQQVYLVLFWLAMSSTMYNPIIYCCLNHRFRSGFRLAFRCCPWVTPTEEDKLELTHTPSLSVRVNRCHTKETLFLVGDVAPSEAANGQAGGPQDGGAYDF
Description: Antagonism of the contractile effects of [βAla^8 ] NKA(4-10) in the rabbit pulmonary artery (Method B). The class given is cell-based. Conditions: agonist [βAla^8 ] NKA(4-10); for Kb: read-out: METHOD B (pA2) (converted). The method, then:
The NK2 receptor antagonist activity of the compounds of the formula (I) can be tested, in vitro, by testing their ability to antagonise the contractile effects of the selective NK2 receptor agonist [βAla^8 ]NKA(4-10) in the rabbit pulmonary artery, using the method of Patacchini and Maggi, Eur. J. Pharmacol., 236, 31-37 (1993).
as §1

In the case of `O=C1CCC(CCN2CC(N3CC[S+]([O-])CC3)C2)(c2ccc(F)c(F)c2)CN1Cc1ccccc1` (stereo not drawn) [Example 14], on human NK2 receptor, the IC50 was 63.1 nM. Besides, the Kb at NK2 receptor was 12.6 nM.

Turning to `O=C1CCC(CCN2CC(C(=O)N3CCCCC3)C2)(c2ccc(Cl)c(Cl)c2)CN1Cc1ccccc1` (stereo not drawn) [Example 31], at human NK2 receptor, the IC50 is 1 nM. Further, the Kb on NK2 receptor is 5.01 nM.

Turning to `CC1CCCCC1CN1CC(CCN2CC(N3CCOCC3)C2)(c2ccc(Cl)c(Cl)c2)CCC1=O` (stereo not drawn) [Example 73], the IC50 at human NK2 receptor is 0.316 nM. The Kb on NK2 receptor is 1.26 nM.

With `CC(c1ccccc1)N1CC(CCN2CC(N3CCOCC3)C2)(c2ccc(Cl)c(Cl)c2)CCC1=O` (stereo not drawn) [Example 75 (enantiomeric pair A)], on human NK2 receptor, the IC50 was 5.01 nM. For the same compound, the Kb on NK2 receptor was 0.794 nM.

On to `CS(=O)(=O)N1CCN(C2CN(CCC3(c4ccc(Cl)cc4)CCC(=O)N(CC4CCCCC4)C3)C2)CC1` (stereo not drawn) [Example 89], for which the IC50 at human NK2 receptor was 6.31 nM. Besides, the Kb at NK2 receptor is 2.51 nM.

`O=C1CCC(CCN2CC(N3[C@@H]4CC[C@H]3C[C@@H](O)C4)C2)(c2ccc(Cl)c(Cl)c2)CN1Cc1ccccc1` (stereo partly drawn) [Example 104, 1-Benzyl-5-(3,4-dichlorophenyl)-5-(2-[3-(endo-3-hydroxy-8-azabicyolo[3,2,1]oct-8-yl)azetidin-1-yl]ethyl)-2-piperidone]: the “METHOD A (pIC50)” value on human NK2 receptor is 8.8. In addition, the “METHOD B (pA2)” value on NK2 receptor is listed as 9.2.
